According to the NIST ThermoML archive (doi:10.1016/j.jct.2010.10.016):

Columns and labels:
[1] = relative permittivity at various frequencies (dimensionless); xn = mol fraction of the nth substance listed; details: 101 kPa, Liquid, Frequency=3 MHz, AC method
[2] = xn = mol fraction of the nth substance listed; details: 101 kPa, Liquid; for viscosity: Capillary tube (Ostwald / Ubbelohde) method; for mass density: Pycnometric method; for speed of sound: Resonance method

COCCO [2-methoxyethan-1-ol] + C[N+](=O)[O-]
x2 = 0
Details	mass density, [2] [kg/m3]	relative permittivity, [1]	speed of sound, [2] [m/s]	viscosity, [2] [mPa·s]
293.15 K	964.88	17.38	1359.3	1.708
298.15 K	960.29	16.96	1342.1	1.544
303.15 K	955.77	16.56	1325.1	1.404
308.15 K	951.19	16.16	1313.5	1.246
313.15 K	946.21	15.77	1296.8	1.098

C[N+](=O)[O-] [nitromethane] + CCCCOCCO
x1 = 1
Details	mass density, [2] [kg/m3]	relative permittivity, [1]	speed of sound, [2] [m/s]	viscosity, [2] [mPa·s]
293.15 K	1137.63	37.31	1340.2	0.648
298.15 K	1130.62	36.52	1320.4	–
298.45 K	–	–	–	0.619
303.15 K	1123.6	35.66	1298.1	0.584
308.15 K	1116.86	34.92	1281.2	0.563
313.15 K	1109.87	34.09	1262.8	0.545
